According to US20080176862A1, “New Compounds 617” (ASTRAZENECA AB, priority 2006, published 2008):
Counter-ions that a name gives are not always drawn.

Biological target: T1, human β-Secretase (soluble part, AA1-AA460; sBACE-Fc) (Homo sapiens, UniProt P56817)
T1 construct: The soluble part of the human β-Secretase (AA1-AA460) was cloned into the ASP2-Fc10-1-IRES-GFP-neoK mammalian expression vector; made in house
Test: TR-FRET assay
Format: biochemical
Conditions: substrate (Europium)CEVNLDAEFK(Qsy7) 100 nM, pH 4.5, 15 min at RT; read-out: IC50 (nM) in TR-FRET assay

T1 sequence (P56817 22-460): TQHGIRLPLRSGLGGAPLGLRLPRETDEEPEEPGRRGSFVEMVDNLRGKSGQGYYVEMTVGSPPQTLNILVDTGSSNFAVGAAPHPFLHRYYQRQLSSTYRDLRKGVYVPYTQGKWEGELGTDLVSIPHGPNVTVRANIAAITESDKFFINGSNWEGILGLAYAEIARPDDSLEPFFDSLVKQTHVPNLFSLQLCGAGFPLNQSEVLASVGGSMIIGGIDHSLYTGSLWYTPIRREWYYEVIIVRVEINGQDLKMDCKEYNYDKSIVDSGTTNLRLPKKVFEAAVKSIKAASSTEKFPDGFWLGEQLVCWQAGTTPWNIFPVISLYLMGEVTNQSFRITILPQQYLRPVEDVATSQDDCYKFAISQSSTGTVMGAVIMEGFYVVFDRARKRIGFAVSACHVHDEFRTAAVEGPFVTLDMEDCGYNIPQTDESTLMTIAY

| IC50 | SMILES |
| --- | --- |
| 46 nM | CN1C(=O)C(c2cccc(OS(=O)(=O)c3ccc(-n4cccn4)cc3)c2)(c2ccc(F)c(-c3cncnc3)c2)N=C1N (centres unmarked) [Example 238, 3-[2-Amino-4-(4-fluoro-3-pyrimidin-5-ylphenyl)-1-methyl-5-oxo-4,5-dihydro-1H-imidazol-4-yl]phenyl 4-(1H-pyrazol-1-yl)benzenesulfonate] |
| 299 nM | CN1C(=O)C(c2cccc(OS(=O)(=O)c3ccc4c(c3)oc(=O)n4C)c2)(c2ccc(F)c(Br)c2)N=C1N (centres unmarked) [Example 229, 3-[2-Amino-4-(3-bromo-4-fluorophenyl)-1-methyl-5-oxo-4,5-dihydro-1H-imidazol-4-yl]phenyl 3-methyl-2-oxo-2,3-dihydro-1,3-benzoxazole-6-sulfonate] |
| 589 nM | CCCN1C(=O)C(c2ccc(OS(C)(=O)=O)cc2)(c2ccc(F)c(-c3cncnc3)c2)N=C1N (centres unmarked) [Example 165, 4-[2-Amino-4-(4-fluoro-3-pyrimidin-5-ylphenyl)-1-propyl-5-oxo-4,5-dihydro-1H-imidazol-4-yl]phenyl methanesulfonate 0.5 acetate] |
| 82 nM | CCC(C)(C)c1ccc(S(=O)(=O)Oc2cccc(C3(c4ccc(F)c(-c5cncnc5)c4)N=C(N)N(C)C3=O)c2)cc1 (centres unmarked) [Example 234, 3-[2-Amino-4-(4-fluoro-3-pyrimidin-5-ylphenyl)-1-methyl-5-oxo-4,5-dihydro-1H-imidazol-4-yl]phenyl 4-(1,1-dimethylpropyl)benzenesulfonate] |
| 25 nM | COc1cc(OS(C)(=O)=O)cc(-c2cccc(C3(c4ccc(OC)c(C)c4)N=C(N)N(C)C3=O)c2)c1 (centres unmarked) [Example 62, 3′-[2-Amino-4-(4-methoxy-3-methylphenyl)-1-methyl-5-oxo-4,5-dihydro-1H-imidazol-4-yl]-5-methoxybiphenyl-3-ylmethanesulfonate 0.25acetate] |
| 552 nM | CN1C(=O)C(c2ccc(OS(C)(=O)=O)cc2)(c2ccc(F)c(CCC3CC3)c2)N=C1N (centres unmarked) [Example 79, 4-{2-Amino-4-[3-(2-cyclopropylethyl)-4-fluorophenyl]-1-methyl-5-oxo-4,5-dihydro-1H-imidazol-4-yl}phenyl methanesulfonate] |
| 234 nM | Cc1noc(C)c1S(=O)(=O)Oc1ccc(C2(c3ccc(F)c(-c4cncnc4)c3)N=C(N)N(C)C2=O)cc1 (centres unmarked) [Example 280, 4-[2-amino-4-(4-fluoro-3-pyrimidin-5-ylphenyl)-1-methyl-5-oxo-4,5-dihydro-1H-imidazol-4-yl]phenyl 3,5-dimethylisoxazole-4-sulfonate] |
| 33 nM | CN1C(=O)C(c2cccc(OS(=O)(=O)c3ccccc3)c2)(c2ccc(F)c(-c3cncnc3)c2)N=C1N (centres unmarked) [Example 133, 3-[2-Amino-4-(4-fluoro-3-pyrimidin-5-ylphenyl)-1-methyl-5-oxo-4,5-dihydro-1H-imidazol-4-yl]phenyl benzenesulfonate hydrochloride] |
| 65 nM | CN1C(=O)C(c2ccc(OS(=O)(=O)c3c(F)cccc3F)cc2)(c2ccc(F)c(-c3cncnc3)c2)N=C1N (centres unmarked) [Example 278, 4-[2-Amino-4-(4-fluoro-3-pyrimidin-5-ylphenyl)-1-methyl-5-oxo-4,5-dihydro-1H-imidazol-4-yl]phenyl 2,6-difluorobenzenesulfonate] |
| 349 nM | COc1ccc(OC(F)(F)F)c(-c2cc(C3(c4ccc(OS(C)(=O)=O)cc4)N=C(N)N(C)C3=O)ccc2F)c1 (centres unmarked) [Example 168, 4-{2-Amino-4-[6-fluoro-5′-methoxy-2′-(trifluoromethoxy)biphenyl-3-yl]-1-methyl-5-oxo-4,5-dihydro-1H-imidazol-4-yl}phenyl methanesulfonate] |
| 912 nM | CCN1C(=O)C(c2ccc(OS(C)(=O)=O)cc2)(c2ccc(F)c(-c3cccc(Cl)c3)c2)N=C1N (centres unmarked) [Example 164, 4-[2-Amino-4-(3′-chloro-6-fluorobiphenyl-3-yl)-1-ethyl-5-oxo-4,5-dihydro-1H-imidazol-4-yl]phenyl methanesulfonate] |
| 2420 nM | CN1C(=O)C(c2ccc(OC(F)F)cc2)(c2ccc(F)c(-c3cc(C#N)cc(OS(C)(=O)=O)c3)c2)N=C1N (centres unmarked) [Example 70, 5′-{2-Amino-4-[4-(difluoromethoxy)phenyl]-1-methyl-5-oxo-4,5-dihydro-1H-imidazol-4-yl}-5-cyano-2′-fluorobiphenyl-3-yl methanesulfonate hydrochloride] |
| 150 nM | CN1C(=O)C(c2ccc(OS(=O)(=O)C(F)(F)F)cc2)(c2ccc(F)c(-c3cncc(F)c3)c2)N=C1N (centres unmarked) [Example 145, 4-{2-amino-4-[4-fluoro-3-(5-fluoropyridin-3-yl)phenyl]-1-methyl-5-oxo-4,5-dihydro-1H-imidazol-4-yl}phenyl trifluoromethanesulfonate 0.5 acetate] |
| 242 nM | CCCS(=O)(=O)Oc1cccc(C2(c3ccc(F)c(-c4cccnc4F)c3)N=C(N)N(C)C2=O)c1 (centres unmarked) [Example 96, 3-{2-Amino-4-[4-fluoro-3-(2-fluoropyridin-3-yl)phenyl]-1-methyl-5-oxo-4,5-dihydro-1H-imidazol-4-yl}phenyl propane-1-sulfonate] |
| 589 nM | COc1ccc(OC)c(S(=O)(=O)Oc2cccc(C3(c4ccc(F)c(-c5cncnc5)c4)N=C(N)N(C)C3=O)c2)c1 (centres unmarked) [Example 235, 3-[2-Amino-4-(4-fluoro-3-pyrimidin-5-ylphenyl)-1-methyl-5-oxo-4,5-dihydro-1H-imidazol-4-yl]phenyl 2,5-dimethoxybenzenesulfonate] |
| 180 nM | CCCS(=O)(=O)Oc1cccc(C2(c3ccc(F)c(-c4cccc(OC)c4)c3)N=C(N)N(C)C2=O)c1 (centres unmarked) [Example 101, 3-[2-Amino-4-(6-fluoro-3′-methoxybiphenyl-3-yl)-1-methyl-5-oxo-4,5-dihydro-1H-imidazol-4-yl]phenyl propane-1-sulfonate] |
| 150 nM | COc1cccc(-c2cc(C3(c4cccc(OS(=O)(=O)N(C)C)c4)N=C(N)N(C)C3=O)ccc2F)c1 (centres unmarked) [Example 112, 3-[2-Amino-4-(6-fluoro-3′-methoxybiphenyl-3-yl)-1-methyl-5-oxo-4,5-dihydro-1H-imidazol-4-yl]phenyl dimethylsulfamate] |
| 156 nM | CN1C(=O)C(c2ccc(OS(=O)(=O)c3ccccc3)cc2)(c2ccc(F)c(Br)c2)N=C1N (centres unmarked) [Example 184, 4-[2-Amino-4-(3-bromo-4-fluorophenyl)-1-methyl-5-oxo-4,5-dihydro-1H-imidazol-4-yl]phenyl benzenesulfonate] |
| 104 nM | Cc1cc(C2(c3ccc(F)c(-c4cc(Cl)cc(OS(C)(=O)=O)c4)c3)N=C(N)N(C)C2=O)ccn1 (centres unmarked) [Example 307, 5′-(2-Amino-1-methyl-4-(2-methylpyridin-4-yl)-5-oxo-4,5-dihydro-1H-imidazol-4-yl)-5-chloro-2′-fluorobiphenyl-3-yl methanesulfonate hydrochloride] |
| 594 nM | CN1C(=O)C(c2cccc(OS(=O)(=O)c3cn(C)cn3)c2)(c2ccc(F)c(Br)c2)N=C1N (centres unmarked) [Example 232, 3-[2-Amino-4-(3-bromo-4-fluorophenyl)-1-methyl-5-oxo-4,5-dihydro-1H-imidazol-4-yl]phenyl 1-methyl-1H-imidazole-4-sulfonate] |
| 284 nM | CN1C(=O)C(c2cccc(OS(C)(=O)=O)c2)(c2ccc(F)c(C3=CCCC3)c2)N=C1N (centres unmarked) [Example 194, 3-[2-Amino-4-(3-cyclopent-1-en-1-yl-4-fluorophenyl)-1-methyl-5-oxo-4,5-dihydro-1H-imidazol-4-yl]phenyl methanesulfonate hydrochloride] |
| 834 nM | COc1ccnc(-c2cc(C3(c4ccc(OS(C)(=O)=O)cc4)N=C(N)N(C)C3=O)ccc2F)n1 (centres unmarked) [Example 6, 4-{2-Amino-4-[4-fluoro-3-(4-methoxypyrimidin-2-yl)phenyl]-1-methyl-5-oxo-4,5-dihydro-1H-imidazol-4-yl}phenyl methanesulfonate 0.25 acetate] |
| 651 nM | CN1C(=O)C(c2cccc(OS(C)(=O)=O)c2)(c2cccc(-c3cnccc3Cl)c2)N=C1N (centres unmarked) [Example 170, 3-{2-Amino-4-[3-(4-chloropyridin-3-yl)phenyl]-1-methyl-5-oxo-4,5-dihydro-1H-imidazol-4-yl}phenyl methanesulfonate hydrochloride] |
| 859 nM | CN1C(=O)C(c2cccc(OS(=O)(=O)c3ccccn3)c2)(c2ccc(F)c(Br)c2)N=C1N (centres unmarked) [Example 226, 3-[2-Amino-4-(3-bromo-4-fluorophenyl)-1-methyl-5-oxo-4,5-dihydro-1H-imidazol-4-yl]phenyl pyridine-2-sulfonate] |
| 101 nM | COc1cc(OS(C)(=O)=O)cc(-c2cccc(C3(c4cc(C)nc(C)c4)N=C(N)N(C)C3=O)c2)c1 (centres unmarked) [Example 305, 3′-(2-Amino-4-(2,6-dimethylpyridin-4-yl)-1-methyl-5-oxo-4,5-dihydro-1H-imidazo-4-yl)-5-methoxybiphenyl-3-yl methanesulfonate hydrochloride] |
| 1200 nM | COc1ccnc(-c2cc(C3(c4cccc(OS(C)(=O)=O)c4)N=C(N)N(C)C3=O)ccc2F)n1 (centres unmarked) [Example 7, 3-{2-Amino-4-[4-fluoro-3-(4-methoxypyrimidin-2-yl)phenyl]-1-methyl-5-oxo-4,5-dihydro-1H-imidazol-4-yl}phenyl methanesulfonate 0.5 acetate] |
| 171 nM | CN1C(=O)C(c2ccc(OS(C)(=O)=O)cc2)(c2ccc(F)c(-c3cnccc3Cl)c2)N=C1N (centres unmarked) [Example 169, 4-{2-amino-4-[3-(4-chloropyridin-3-yl)-4-fluorophenyl]-1-methyl-5-oxo-4,5-dihydro-1H-imidazol-4-yl}phenyl methanesulfonate hydrochloride] |
| 100 nM | COc1ccc(C#N)c(-c2cc(C3(c4cccc(OS(C)(=O)=O)c4)N=C(N)N(C)C3=O)ccc2F)c1 (centres unmarked) [Example 177, 3-[2-Amino-4-(2′-cyano-6-fluoro-5′-methoxybiphenyl-3-yl)-1-methyl-5-oxo-4,5-dihydro-1H-imidazol-4-yl]phenyl methanesulfonate hydrochloride] |

| SMILES | IC50 |
| --- | --- |
| CN1C(=O)C(c2ccc(OC(F)F)cc2)(c2cccc(-c3cc(Cl)cc(OS(C)(=O)=O)c3)c2)N=C1N (centres unmarked) [Example 64, 3′-{2-Amino-4-[4-(difluoromethoxy)phenyl]-1-methyl-5-oxo-4,5-dihydro-1H-imidazol-4-yl}-5-chlorobiphenyl-3-ylmethanesulfonate] | 28 nM |
